Values joined by “and” are separate entries in the source; they are usually repeats but may differ in a detail not shown here. Identical values can stand only once. “Also recorded” adds a separate entry of the source.
Columns and labels:
SGLT2 = target: T1, SGLT2 (Homo sapiens, UniProt P31639); test: Glucose (2-DG) uptake colorimetric assay in 3D PT tissues; assay type: cell-based
T1 construct: SGLT2 protein expression was detected primarily at the apical surface of RPTEC on 3D PT tissues; endogenous in cells; host or cells: bioprinted 3D PT tissue: primary human RPTEC on an interstitium of primary human renal fibroblasts and HUVEC
T1 sequence (P31639 1-672): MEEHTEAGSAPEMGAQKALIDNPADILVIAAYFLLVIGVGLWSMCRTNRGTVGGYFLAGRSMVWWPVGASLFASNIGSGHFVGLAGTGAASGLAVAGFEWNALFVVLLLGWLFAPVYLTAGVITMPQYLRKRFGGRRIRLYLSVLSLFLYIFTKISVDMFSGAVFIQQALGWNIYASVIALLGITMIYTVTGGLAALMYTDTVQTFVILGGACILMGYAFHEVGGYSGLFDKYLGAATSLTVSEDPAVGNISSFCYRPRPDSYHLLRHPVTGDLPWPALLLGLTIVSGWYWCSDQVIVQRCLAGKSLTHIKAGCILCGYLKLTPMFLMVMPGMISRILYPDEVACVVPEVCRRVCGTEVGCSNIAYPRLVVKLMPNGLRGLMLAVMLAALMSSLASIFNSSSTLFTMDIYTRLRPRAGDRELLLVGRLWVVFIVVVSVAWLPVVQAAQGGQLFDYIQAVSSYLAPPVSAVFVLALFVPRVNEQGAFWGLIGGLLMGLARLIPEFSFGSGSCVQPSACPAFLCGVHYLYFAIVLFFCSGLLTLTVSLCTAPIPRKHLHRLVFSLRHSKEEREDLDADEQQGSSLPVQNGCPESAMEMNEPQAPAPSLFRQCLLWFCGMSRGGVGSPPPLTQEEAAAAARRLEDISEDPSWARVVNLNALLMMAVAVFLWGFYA
Protocol: Glucose uptake in 3D PT tissues was detected and quantified according to the manufacturer's protocol (Abeam, Cambridge, Mass.). Insulin-Transferrin-Selenium (Gibco, Carlsbad, Calif.) was used to stimulate glucose uptake and canagliflozin (Santa Cruz Biotech, Dallas, Tex.) was used to inhibit SGLT2 function. […] Tissues were then pretreated with 1X insulin or 500 μM canagliflozin for 20 minutes, followed by addition of 1 mM 2-deoxyglucose. Tissues were washed extensively with PBS and lysed in extraction buffer in Precellys® lysis tubes (Precellys, Rockville, Md.).

3D PT tissues [1] = test: PCNA staining, RPTEC proliferation in 3D PT tissues; assay type: cell-based, human; conditions: daily for 7 days
Protocol: 3D PT were fixed overnight in 2% paraformaldehyde (Electron Microscopy Sciences, Hatfield, Pa.). Tissues were oriented for transverse sectioning by pre-embedding in HistoGel™ (Thermo Fisher, Carlsbad, Calif.) and were then dehydrated and infiltrated with paraffin by automated processing on a Tissue-Tek VIP® tissue processing system (Sakura Finetek USA, Torrance, Calif.). Tissues were sectioned at 5 μM on a Leica® Reichert-Jung® Histocut microtome (Leica Biosystems, Buffalo Grove, Ill.). Hematoxylin and eosin (H&E) or Gomori's trichrome (TCM) stains were generated using a Leica® Autostainer XL (Leica Biosystems, Buffalo Grove, Ill.) according to manufacturer's instructions. Immunohistochemistry was performed as previously described (King et al., 2013) using the primary antibodies in Table 1. Following overnight incubation with primary antibodies at 4° C., sections were stained with AlexaFluor®-conjugated secondary antibodies (Thermo Fisher, Carlsbad, Calif.) at 1:200 dilution. For P-gp and SGLT2 detection, tyramide signal amplification was performed according to the manufacturer's instructions (Thermo Fisher, Carlsbad, Calif.). Slides were counterstained and mounted with FluoroGel II with DAPI (Electron Microscopy Sciences, Hatfield, Pa.). H&E and TCM images were acquired on a Zeiss® Axioskop with Zeiss® Zen software (Zeiss Microscopy, Thornwood, NY). Immunofluorescent images were acquired on a Zeiss® Axio® Imager A2 with Zeiss® Zen software.

3D PT tissues [2] = conditions: OCT2 inhibition by cimetidine
From the text: 3D PT Novo View™ Tissues were fabricated as described (Nguyen et al., 2016). Briefly, cultured renal fibroblasts and HUVEC were combined in a 50:50 ratio and resuspended in NovoGel® Bio-Ink, and then bioprinted onto 0.4 μm Transwell® clear polyester membrane inserts in a 24-well plate (Coming Costar, Coming, NY) using a NovoGen Bioprinter® Instrument (Organovo Inc., San Diego, Calif.) with previously established protocols (Forgacs et al., 2012; Murphy et al., 2015; Nguyen et al., 2016). Following bioprinting, NovoView′ Tissues were cultured in NovoView™ Kidney Media (Organovo, San Diego, Calif.). On culture day 3, primary RPTEC cells were added to the tissues in a suspension of 1.25×10^6 cells/ml in RPTEC media. […]
Assessment of metabolic activity as a surrogate for tissue viability and health was performed by alamarBlue™ assay according to the manufacturer's protocol (Thermo Fisher, Carlsbad, Calif.). […] After incubation, the alamarBlue′ solution was removed and fluorescence was measured on a BMG Labtech POLARstar® Omega reader (Cary, N.C.) with an excitation filter of 560 nm and an emission filter of 590 nm. Graphed data represent the percent relative fluorescence units (RFU) compared to blank for metabolic activity over time, or the percent RFU compared to vehicle control for toxicity studies.

[3] = humans, Zhang and Zhou, 2012; cited from earlier work
3D PT tissues [4] = test: GGT activity of 3D PT tissues (epithelial function); assay type: cell-based, human; conditions: 5 μM cisplatin, daily for 7 days
Protocol: GGT activity was measured according to the manufacturer's protocol (Sigma Aldrich, St. Louis, Mo.). Tissues were washed twice with DPBS and lysed in GGT assay buffer in a Precellys® lysis tube (Precellys, Rockville, Md.). Lysate was assessed for GGT activity by comparison to a standard curve integration of absorbance normalized for volume and duration of incubation period at 37° C. using GraphPad Prism® software (GraphPad, San Diego, Calif.). Data shown represent the average GGT activity in mIU/ml for analysis of GGT function over time, or percent relative to vehicle for toxicity studies.

3D PT tissues [5] = test: LDH release from 3D PT tissues; assay type: cell-based, human; conditions: 5 μM cisplatin alone, treatment day 5 (peak)
Protocol: Lactate dehydrogenase (LDH) activity assay was performed according to the manufacturer's protocol (Abcam, Cambridge, Mass.). Conditioned media was collected from 3D PT tissues and further diluted in fresh media to ensure that the LDH activity of the sample was within the linear range of the assay. Samples were measured on a microplate reader (BMG Labtech, Cary, N.C.). LDH activity was determined by standard curve integration of absorbance normalized for volume and duration using GraphPad Prism® software (GraphPad, San Diego, Calif.). Data shown represent the fold change in LDH activity relative to vehicle control for each day of sampling.

3D PT tissues [6] = test: H&E histology of 3D PT tissues; conditions: daily for 7 days; 5 μM cisplatin, 1 mM cimetidine
Protocol: 3D PT were fixed overnight in 2% paraformaldehyde (Electron Microscopy Sciences, Hatfield, Pa.). Tissues were oriented for transverse sectioning by pre-embedding in HistoGel™ (Thermo Fisher, Carlsbad, Calif.) and were then dehydrated and infiltrated with paraffin by automated processing on a Tissue-Tek VIP® tissue processing system (Sakura Finetek USA, Torrance, Calif.). Tissues were sectioned at 5 μM on a Leica® Reichert-Jung® Histocut microtome (Leica Biosystems, Buffalo Grove, Ill.). Hematoxylin and eosin (H&E) or Gomori's trichrome (TCM) stains were generated using a Leica® Autostainer XL (Leica Biosystems, Buffalo Grove, Ill.) according to manufacturer's instructions. Immunohistochemistry was performed as previously described (King et al., 2013) using the primary antibodies in Table 1. Following overnight incubation with primary antibodies at 4° C., sections were stained with AlexaFluor®-conjugated secondary antibodies (Thermo Fisher, Carlsbad, Calif.) at 1:200 dilution. For P-gp and SGLT2 detection, tyramide signal amplification was performed according to the manufacturer's instructions (Thermo Fisher, Carlsbad, Calif.). Slides were counterstained and mounted with FluoroGel II with DAPI (Electron Microscopy Sciences, Hatfield, Pa.). H&E and TCM images were acquired on a Zeiss® Axioskop with Zeiss® Zen software (Zeiss Microscopy, Thornwood, NY). […]

3D PT tissues [7] = test: Passive permeability (Papp) of Lucifer yellow across 3D PT tissues; assay type: in vitro ADME, human; conditions: for Papp: Lucifer yellow 250 μM, 1 h, individual tissues 1-6 and average
Protocol: Tissues were then dosed with 250 μM Lucifer yellow (Thermo Fisher, Carlsbad, Calif.) to the apical compartment and fresh assay buffer in the basolateral (receiver) compartment. Following incubation for 1 h at 37° C., samples were taken from both the apical and basolateral compartments. Fluorescence in each sample was measured on a BMG plate reader with an excitation filter of 490 nm and an emission filter of 540 nm (BMG Labtech, Cary, N.C.) and normalized to a standard curve for quantification. Papp was calculated with equation 1, where V represents the volume of Lucifer yellow solution, T is the duration of the incubation, D0 is the concentration of Lucifer yellow applied to the cells, and A is the growth area of the Transwell® insert. Papp=(V/A×D0))*(ΔD/ΔT) Equation 1: […]

[8] = tested on: ExVive™ Human Kidney Tissue; test: Resazurin conversion in ExVive Human Kidney Tissue; assay type: cell-based; conditions: 0.37-10 ng/ml daily for seven days
Protocol: (§1) As described in this present disclosure, the ExVive™ Human Kidney Tissue (Organovo, San Diego, Calif.) is a fully human three-dimensional (3D), bioprinted tissue comprised of an apical layer of polarized primary renal proximal tubule epithelial cells (RPTECs) supported by a collagen IV-rich tubulointerstitial interface of primary renal fibroblasts and endothelial cells. As renal fibrosis is a common downstream effect of drug-induced injury, the ExVive™ Human Kidney Tissue was treated with Transforming Growth Factor R (TGFI3 or TGFbeta), a key player of the fibrotic response, for purposes of evaluating tubulointerstitial fibrosis. Thus, to induce renal fibrosis, a healthy ExVive™ Human Kidney Tissue was treated with TGFI3, a key player of the fibrotic response. In particular, each healthy ExVive™ Human Kidney Tissue was dosed daily for seven days with vehicle control, 0.37 ng/ml TGFβ, 1.1ng/m1 TGFβ, 3.3 ng/ml TGFβ, or 10 ng/m1 TGFβ, respectively. Subsequently, after the ExVive™ Human Kidney Tissue was treated with TGFβ, an assessment of the viability and epithelial cell functions of this ExVive™ Human Kidney Tissue was conducted. […] Data shown is the average of 3 tissue samples per condition and is represented as the fold change relative to the vehicle control. *p<0.05; ***p<0.001 for each condition compared to vehicle control.

[9] = tested on: ExVive™ Human Kidney Tissue; test: GGT activity in ExVive Human Kidney Tissue; assay type: cell-based; conditions: 0.37-10 ng/ml daily for seven days
Protocol: as §1

[10] = tested on: ExVive™ Human Kidney Tissue; test: Fibrosis-related gene expression by semi-quantitative RTPCR; assay type: cell-based; conditions: 0.37-10 ng/ml daily for seven days
Protocol: Fibrosis-related gene expression was also assessed on this ExVive™ Human Kidney Tissue treated with TGFβ. […] Data shown is the average of 3 tissue samples per condition. *p<0.0001 for each condition compared to vehicle control.

[11] = tested on: ExVive™ Human Kidney Tissue; test: ECM deposition (Gomori's Trichrome, Sirius red) in ExVive tissue; assay type: cell-based; conditions: 0.37-10 ng/ml daily for seven days
From the text: Data represents the average of 4 technical replicates per tissue, 3 tissues per condition and is represented as the fold change relative to the vehicle control following normalization to total protein content as measured by Fast Green staining. *p<0.05 for each condition compared to vehicle control.

ACE = target: T2, ACE (Homo sapiens, UniProt P12821); test: ACE function: conversion of angiotensin I to angiotensin II (ELISA); assay type: cell-based; conditions: after 5 ng/ml human angiotensin I for 24 h
T2 construct: ACE protein was detected in both conditioned media and tissue lysates, with higher detection in the tissue lysates; endogenous in cells; host or cells: bioprinted 3D PT tissue: primary human RPTEC on an interstitium of primary human renal fibroblasts and HUVEC
T2 sequence (P12821 30-1306): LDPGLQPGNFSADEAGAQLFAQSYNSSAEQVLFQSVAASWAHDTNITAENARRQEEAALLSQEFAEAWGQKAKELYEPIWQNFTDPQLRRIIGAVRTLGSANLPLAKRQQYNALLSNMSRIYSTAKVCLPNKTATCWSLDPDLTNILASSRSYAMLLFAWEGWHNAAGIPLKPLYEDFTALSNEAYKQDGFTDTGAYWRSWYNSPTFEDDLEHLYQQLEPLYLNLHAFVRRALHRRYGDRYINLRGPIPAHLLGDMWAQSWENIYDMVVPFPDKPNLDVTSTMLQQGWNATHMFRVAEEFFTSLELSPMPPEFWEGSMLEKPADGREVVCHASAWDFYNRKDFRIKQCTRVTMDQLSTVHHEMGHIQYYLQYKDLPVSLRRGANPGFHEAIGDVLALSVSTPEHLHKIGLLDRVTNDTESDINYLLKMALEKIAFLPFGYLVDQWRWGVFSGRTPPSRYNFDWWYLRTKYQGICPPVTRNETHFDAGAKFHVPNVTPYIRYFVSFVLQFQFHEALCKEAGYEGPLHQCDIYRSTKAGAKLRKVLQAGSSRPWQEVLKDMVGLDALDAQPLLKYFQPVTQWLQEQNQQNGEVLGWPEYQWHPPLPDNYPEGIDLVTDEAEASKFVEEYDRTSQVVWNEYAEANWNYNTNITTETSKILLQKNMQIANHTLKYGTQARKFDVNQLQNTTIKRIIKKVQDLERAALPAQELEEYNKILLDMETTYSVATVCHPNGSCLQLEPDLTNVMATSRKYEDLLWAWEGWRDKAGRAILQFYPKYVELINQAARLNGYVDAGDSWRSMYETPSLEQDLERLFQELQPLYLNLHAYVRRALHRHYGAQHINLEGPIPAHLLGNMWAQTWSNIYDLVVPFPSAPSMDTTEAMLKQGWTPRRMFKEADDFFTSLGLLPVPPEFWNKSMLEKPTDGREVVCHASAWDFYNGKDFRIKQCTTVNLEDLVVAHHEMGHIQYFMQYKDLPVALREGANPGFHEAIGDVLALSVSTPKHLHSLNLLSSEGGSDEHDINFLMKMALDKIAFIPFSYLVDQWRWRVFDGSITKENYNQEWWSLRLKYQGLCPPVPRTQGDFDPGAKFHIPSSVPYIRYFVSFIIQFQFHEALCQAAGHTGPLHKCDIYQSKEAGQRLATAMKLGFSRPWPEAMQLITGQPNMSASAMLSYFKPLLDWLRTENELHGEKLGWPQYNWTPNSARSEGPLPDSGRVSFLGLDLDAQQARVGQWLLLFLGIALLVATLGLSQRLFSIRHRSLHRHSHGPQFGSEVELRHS
Protocol: To evaluate ACE enzyme function, 3D PT tissues were treated for 24 h with 5 ng/ml human angiotensin I (Abeam, Cambridge, Mass.) and angiotensin II was then detected using a competitive ELISA kit from Sigma per the manufacturer's instructions (Sigma-Aldrich, St. Louis, Mo.). Plates were read at 450 nm within 30 minutes of addition of the stop solution (BMG Labtech, Cary, N.C.). The concentration of angiotensin II in the test samples was determined by comparison to the standard curve using GraphPad Prism® software (GraphPad, San Diego, Calif.).

P-gp = target: T3, P-gp (Homo sapiens, UniProt P08183); test: Rhodamine 123 transport / P-gp efflux in 3D PT tissues; assay type: cell-based; conditions: image quantification, 2 h, 5 μM zosuquidar
T3 construct: P-gp protein expression was detected at the apical surface of the RPTEC cells in the 3D PT model; endogenous in cells; host or cells: bioprinted 3D PT tissue: primary human RPTEC on an interstitium of primary human renal fibroblasts and HUVEC
T3 sequence (P08183 whole entry): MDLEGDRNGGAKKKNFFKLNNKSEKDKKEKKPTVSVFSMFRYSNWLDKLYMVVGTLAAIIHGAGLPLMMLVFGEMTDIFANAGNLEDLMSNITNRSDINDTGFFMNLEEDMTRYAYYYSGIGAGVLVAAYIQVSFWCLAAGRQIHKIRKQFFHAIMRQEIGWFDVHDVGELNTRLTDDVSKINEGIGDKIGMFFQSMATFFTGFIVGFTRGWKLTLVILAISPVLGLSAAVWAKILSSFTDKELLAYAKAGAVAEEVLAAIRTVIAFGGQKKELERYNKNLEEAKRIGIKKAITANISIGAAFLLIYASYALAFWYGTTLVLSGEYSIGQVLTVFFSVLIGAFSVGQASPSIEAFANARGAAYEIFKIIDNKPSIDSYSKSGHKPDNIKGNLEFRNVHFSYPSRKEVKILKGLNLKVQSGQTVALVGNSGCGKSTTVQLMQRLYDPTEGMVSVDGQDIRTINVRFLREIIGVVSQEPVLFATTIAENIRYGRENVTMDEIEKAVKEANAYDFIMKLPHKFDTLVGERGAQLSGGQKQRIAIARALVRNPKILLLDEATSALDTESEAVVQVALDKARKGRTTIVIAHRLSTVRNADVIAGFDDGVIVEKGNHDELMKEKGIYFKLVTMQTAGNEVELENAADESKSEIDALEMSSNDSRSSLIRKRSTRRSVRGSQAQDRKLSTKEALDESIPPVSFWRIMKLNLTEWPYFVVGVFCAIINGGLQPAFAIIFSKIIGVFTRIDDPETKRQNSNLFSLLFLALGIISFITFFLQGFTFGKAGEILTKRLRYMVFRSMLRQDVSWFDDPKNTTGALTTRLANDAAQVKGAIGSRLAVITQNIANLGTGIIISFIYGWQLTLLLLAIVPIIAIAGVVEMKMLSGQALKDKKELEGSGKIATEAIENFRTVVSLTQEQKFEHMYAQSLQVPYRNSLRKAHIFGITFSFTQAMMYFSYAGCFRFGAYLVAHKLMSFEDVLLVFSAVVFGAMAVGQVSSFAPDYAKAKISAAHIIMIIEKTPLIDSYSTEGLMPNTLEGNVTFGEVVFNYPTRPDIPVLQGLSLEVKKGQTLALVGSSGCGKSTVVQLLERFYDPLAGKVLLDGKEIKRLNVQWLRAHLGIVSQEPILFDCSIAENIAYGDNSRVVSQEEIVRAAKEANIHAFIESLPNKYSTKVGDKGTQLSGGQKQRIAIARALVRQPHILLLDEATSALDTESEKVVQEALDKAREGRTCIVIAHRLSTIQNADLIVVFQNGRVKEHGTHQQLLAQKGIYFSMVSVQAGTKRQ
Protocol: Both apical and basolateral sides of tissues were then pre-incubated for 20 min at 37° C. in assay buffer in the presence or absence of 5 μM zosuquidar (Sigma Aldrich, St. Louis, Mo.). Following pre-treatment, tissues were dosed on the basolateral side with 1 μM rhodamine 123 (Molecular Probes, Eugene, Oreg.) with or without 5 μM zosuquidar for 2h at 37° C. After incubation, the tissues were washed with cold assay buffer, fixed with 2% PFA, and cryosectioned. Images were captured at the same exposure time across all conditions. Fluorescence intensity, corrected for background and relative area, was calculated in Image J (National Institutes of Health, Bethesda, Md.) and graphed as fold change relative to control using GraphPad Prism® software (GraphPad, San Diego).

## Cc1ccc([C@@H]2O[C@H](CO)[C@@H](O)[C@H](O)[C@H]2O)cc1Cc1ccc(-c2ccc(F)cc2)s1 [canagliflozin]
SGLT2; normal tissue media, co-administration with insulin, 500 μM canagliflozin
  decrease of insulin-induced intracellular 2-DG: 50%
SGLT2; tissues starved overnight, 500 μM canagliflozin
  effect on insulin-induced glucose uptake: significantly reduced by canagliflozin to levels indistinguishable from the control tissues

## CN/C(=N/CCSCc1nc[nH]c1C)NC#N [cimetidine]
3D PT tissues [1]
  RPTEC proliferation (PCNA): low levels of RPTEC proliferation
3D PT tissues [2]
  protection against cisplatin-induced loss of viability and epithelial function: successfully protected
[3]
  urinary cystatin C following cisplatin administration: decreased urinary cystatin C

## N.N.[Cl][Pt][Cl] [cisplatin]
3D PT tissues [4]
  reduction in GGT activity: ~50%
3D PT tissues [5]
  LDH release, increase over vehicle controls: 3 fold
3D PT tissues [1]
  RPTEC proliferation (PCNA): dose-dependent proliferative response; also recorded: dose-dependent increase in proliferating RPTEC
3D PT tissues [6]
  epithelial morphology (H&E): more squamous morphology and loss of nuclei

## Lucifer yellow
3D PT tissues [7]
  Papp: 2.93e-06 cm/s and 2.63e-06 cm/s and 2.73e-06 cm/s and 2.66e-06 cm/s and 3.74e-06 cm/s and 3.11e-06 cm/s
3D PT tissues [7]; mean
  Papp: 2.97 ± 0.17 ×10^−6 cm/s
3D PT tissues [7]; Lucifer yellow, 3D PT tissues
  average Papp: 2.97 ×10⁻⁶ cm/s

## TGFβ
[8]
  Resazurin conversion (overall tissue metabolic activity): No statistically significant differences
[9]
  GGT activity (epithelial cell function): Statistically significant reduction in RPTEC function was detected with higher doses; also recorded: loss of epithelial cell function at the highest dose
[10]
  fibrosis-related gene expression (COL1A1, CTGF, FAP, PDGFRB): induction of the fibrotic markers; also recorded: increase in the expression of fibrosis-related genes
[11]
  tissue thickness and extracellular matrix deposition: induces tissue thickening and increased extracellular matrix deposition; also recorded: extensive ECM deposition in the interstitium

## angiotensin I: human angiotensin I (Abcam), ACE substrate (DRVYIHPFHL; Angiotensin-1; UniProt P01019 25-34, looked up)
ACE
  angiotensin II detected: 0.4 pg/mL

## insulin: Insulin-Transferrin-Selenium (Gibco) used to stimulate glucose uptake
SGLT2; tissues in normal tissue media
  increase in intracellular 2-DG: 4 fold
SGLT2; tissues starved overnight
  increase in glucose uptake: 8 fold

## rhodamine 123 [R123]
P-gp
  increase in fluorescence over control tissues: 4 fold
